Data from article PMC6199744, “Development of Chemical Proteomics for the Folateome and Analysis of the Kinetoplastid Folateome” (ACS Infectious Diseases, 2018).
Where two headings read alike, the source gives them in different places.

Tests used:
Format in all cases: binding
[1] = biological target: T1, HeLa cell extract proteins (Homo sapiens, UniProt P40926)
T1 construct: endogenous in cells; host or cells: HeLa cell extract
T1 sequence (P40926 25-338): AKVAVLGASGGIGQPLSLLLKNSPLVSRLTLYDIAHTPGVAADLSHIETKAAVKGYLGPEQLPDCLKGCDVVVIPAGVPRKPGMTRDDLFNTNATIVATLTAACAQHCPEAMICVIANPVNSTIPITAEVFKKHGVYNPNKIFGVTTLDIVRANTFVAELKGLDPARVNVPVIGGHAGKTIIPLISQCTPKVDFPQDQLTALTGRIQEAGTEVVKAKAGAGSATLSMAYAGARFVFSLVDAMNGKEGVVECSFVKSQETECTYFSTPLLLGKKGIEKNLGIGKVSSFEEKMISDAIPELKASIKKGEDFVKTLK

[2] = biological target: T2, HeLa cell extract proteins (Homo sapiens, UniProt Q01105)
T2 construct: endogenous in cells; host or cells: HeLa cell extract

[3] = biological target: T3, HeLa cell extract proteins (Homo sapiens, UniProt Q6UXN9)
T3 construct: endogenous in cells; host or cells: HeLa cell extract

[4] = biological target: T4, HeLa cell extract proteins (Homo sapiens, UniProt Q01650)
T4 construct: endogenous in cells; host or cells: HeLa cell extract

[5] = biological target: T5, HeLa cell extract proteins (Homo sapiens, UniProt Q9Y6M0)
T5 construct: endogenous in cells; host or cells: HeLa cell extract

[6] = biological target: T6, HeLa cell extract proteins (Homo sapiens, UniProt Q6JQN1)
T6 construct: endogenous in cells; host or cells: HeLa cell extract
T6 sequence (Q6JQN1 1-1059): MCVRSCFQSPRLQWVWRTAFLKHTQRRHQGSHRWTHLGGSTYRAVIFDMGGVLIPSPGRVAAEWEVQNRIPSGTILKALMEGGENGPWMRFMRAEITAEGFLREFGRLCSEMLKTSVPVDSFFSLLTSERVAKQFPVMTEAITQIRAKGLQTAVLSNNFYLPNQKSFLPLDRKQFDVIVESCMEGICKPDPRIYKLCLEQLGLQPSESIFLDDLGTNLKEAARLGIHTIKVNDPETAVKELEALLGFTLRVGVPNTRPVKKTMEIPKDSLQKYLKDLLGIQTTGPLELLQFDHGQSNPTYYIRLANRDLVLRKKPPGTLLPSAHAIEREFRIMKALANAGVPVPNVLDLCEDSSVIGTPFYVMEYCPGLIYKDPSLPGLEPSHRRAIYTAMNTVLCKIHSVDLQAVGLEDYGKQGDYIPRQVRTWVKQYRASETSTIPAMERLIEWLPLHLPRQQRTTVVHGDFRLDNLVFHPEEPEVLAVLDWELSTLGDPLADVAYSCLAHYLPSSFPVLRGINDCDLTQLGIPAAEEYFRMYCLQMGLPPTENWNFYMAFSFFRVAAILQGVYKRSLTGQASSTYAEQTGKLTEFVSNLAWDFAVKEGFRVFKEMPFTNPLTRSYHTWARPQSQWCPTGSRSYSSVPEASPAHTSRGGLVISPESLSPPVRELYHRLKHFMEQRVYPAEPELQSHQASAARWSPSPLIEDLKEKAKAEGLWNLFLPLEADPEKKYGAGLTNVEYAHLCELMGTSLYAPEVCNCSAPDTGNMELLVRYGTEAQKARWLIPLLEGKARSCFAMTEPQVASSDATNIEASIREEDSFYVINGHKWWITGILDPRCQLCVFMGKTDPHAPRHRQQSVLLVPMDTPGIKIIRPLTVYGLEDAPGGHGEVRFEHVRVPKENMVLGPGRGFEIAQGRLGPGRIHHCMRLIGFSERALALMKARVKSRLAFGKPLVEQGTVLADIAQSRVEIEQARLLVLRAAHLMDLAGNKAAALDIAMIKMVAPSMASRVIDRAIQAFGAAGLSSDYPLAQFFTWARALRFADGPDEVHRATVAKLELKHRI

[7] = biological target: T7, HeLa cell extract proteins (Homo sapiens, UniProt P30101)
T7 construct: endogenous in cells; host or cells: HeLa cell extract
T7 sequence (P30101 25-505): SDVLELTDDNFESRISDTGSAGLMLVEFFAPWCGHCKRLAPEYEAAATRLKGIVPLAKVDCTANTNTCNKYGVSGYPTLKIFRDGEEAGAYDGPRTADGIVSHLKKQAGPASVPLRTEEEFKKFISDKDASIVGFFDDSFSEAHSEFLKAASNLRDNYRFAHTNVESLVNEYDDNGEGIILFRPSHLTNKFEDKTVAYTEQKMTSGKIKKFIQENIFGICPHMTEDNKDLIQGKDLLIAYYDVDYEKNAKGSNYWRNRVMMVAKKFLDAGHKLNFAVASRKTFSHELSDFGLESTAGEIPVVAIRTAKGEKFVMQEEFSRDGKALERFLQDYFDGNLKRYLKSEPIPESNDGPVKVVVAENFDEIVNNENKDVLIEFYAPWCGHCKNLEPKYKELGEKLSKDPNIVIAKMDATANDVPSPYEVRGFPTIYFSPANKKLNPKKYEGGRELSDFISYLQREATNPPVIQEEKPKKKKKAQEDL

[8] = biological target: T8, HeLa cell extract proteins (Homo sapiens, UniProt Q96AE4)
T8 construct: endogenous in cells; host or cells: HeLa cell extract
T8 sequence (Q96AE4 1-644): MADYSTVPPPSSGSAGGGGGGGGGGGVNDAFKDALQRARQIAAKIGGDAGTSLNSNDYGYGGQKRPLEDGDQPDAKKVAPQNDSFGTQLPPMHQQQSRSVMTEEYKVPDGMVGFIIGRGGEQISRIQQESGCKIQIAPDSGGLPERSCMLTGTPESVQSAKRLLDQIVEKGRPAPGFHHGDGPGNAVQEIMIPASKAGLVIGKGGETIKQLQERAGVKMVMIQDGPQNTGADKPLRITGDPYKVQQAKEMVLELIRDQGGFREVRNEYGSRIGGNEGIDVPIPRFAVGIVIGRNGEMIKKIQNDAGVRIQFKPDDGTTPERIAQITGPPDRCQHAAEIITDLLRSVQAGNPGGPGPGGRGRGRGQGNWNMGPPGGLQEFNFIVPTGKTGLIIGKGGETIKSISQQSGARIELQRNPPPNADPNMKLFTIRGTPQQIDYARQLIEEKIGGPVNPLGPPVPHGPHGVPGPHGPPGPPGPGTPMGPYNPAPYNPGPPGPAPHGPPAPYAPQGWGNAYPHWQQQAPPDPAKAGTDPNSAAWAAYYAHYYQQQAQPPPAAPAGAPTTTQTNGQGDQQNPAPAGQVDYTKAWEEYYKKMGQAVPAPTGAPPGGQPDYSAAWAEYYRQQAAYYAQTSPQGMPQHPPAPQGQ

[9] = HeLa, protein SET (ISOFORM 1 OF PROTEIN SET.)

T4 sequence (Q01650 whole entry): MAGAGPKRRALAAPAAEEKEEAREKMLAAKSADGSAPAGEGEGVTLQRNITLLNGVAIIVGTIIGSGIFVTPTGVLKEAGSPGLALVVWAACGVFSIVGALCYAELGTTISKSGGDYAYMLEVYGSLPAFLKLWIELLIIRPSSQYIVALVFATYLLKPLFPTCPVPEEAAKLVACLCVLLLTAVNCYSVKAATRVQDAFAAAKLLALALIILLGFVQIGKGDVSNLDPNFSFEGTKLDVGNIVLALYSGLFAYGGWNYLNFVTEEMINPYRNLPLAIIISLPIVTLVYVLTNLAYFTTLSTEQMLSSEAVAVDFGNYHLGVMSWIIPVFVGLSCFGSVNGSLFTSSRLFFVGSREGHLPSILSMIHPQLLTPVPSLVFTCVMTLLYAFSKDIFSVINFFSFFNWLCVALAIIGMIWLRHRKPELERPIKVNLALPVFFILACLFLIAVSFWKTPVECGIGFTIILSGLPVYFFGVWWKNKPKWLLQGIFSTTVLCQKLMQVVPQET
T2 sequence (Q01105 whole entry): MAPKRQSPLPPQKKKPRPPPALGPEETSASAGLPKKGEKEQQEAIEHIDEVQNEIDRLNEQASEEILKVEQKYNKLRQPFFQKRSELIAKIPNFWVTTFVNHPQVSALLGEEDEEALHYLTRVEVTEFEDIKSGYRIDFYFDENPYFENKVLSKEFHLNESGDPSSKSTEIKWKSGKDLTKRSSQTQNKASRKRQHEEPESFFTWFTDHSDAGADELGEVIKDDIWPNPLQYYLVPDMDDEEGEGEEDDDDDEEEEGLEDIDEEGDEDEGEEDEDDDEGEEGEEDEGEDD
T3 sequence (Q6UXN9 whole entry): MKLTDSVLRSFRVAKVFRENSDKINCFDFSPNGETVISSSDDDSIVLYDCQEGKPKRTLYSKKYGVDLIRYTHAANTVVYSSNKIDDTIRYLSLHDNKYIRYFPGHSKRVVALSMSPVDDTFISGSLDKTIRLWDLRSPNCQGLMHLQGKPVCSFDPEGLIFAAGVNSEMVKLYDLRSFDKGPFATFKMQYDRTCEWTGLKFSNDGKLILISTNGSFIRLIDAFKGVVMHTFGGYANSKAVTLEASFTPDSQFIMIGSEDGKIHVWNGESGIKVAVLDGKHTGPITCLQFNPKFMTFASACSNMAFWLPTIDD
T5 sequence (Q9Y6M0 42-314): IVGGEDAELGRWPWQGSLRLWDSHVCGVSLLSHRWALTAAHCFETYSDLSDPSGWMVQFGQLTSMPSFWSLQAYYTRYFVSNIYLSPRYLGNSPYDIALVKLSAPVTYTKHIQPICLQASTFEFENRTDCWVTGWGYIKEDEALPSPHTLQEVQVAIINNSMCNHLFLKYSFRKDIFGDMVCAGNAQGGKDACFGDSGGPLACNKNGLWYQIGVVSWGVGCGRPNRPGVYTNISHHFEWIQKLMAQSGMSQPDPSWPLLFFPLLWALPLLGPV

Compound	fold changes relative to vehicle control ([1]; HeLa, protein MDH2)	fold changes relative to vehicle control ([2]; HeLa, captured protein SET)	fold changes relative to vehicle control ([3]; HeLa, captured protein WDR82)	fold changes relative to vehicle control ([4]; HeLa, captured protein SLC7A5)	fold changes relative to vehicle control ([5]; HeLa, protein PRSS21)	fold changes relative to vehicle control ([6]; protein ACAD10, HeLa)	fold changes relative to vehicle control ([7]; protein PDIA3, HeLa)	fold changes relative to vehicle control ([8]; HeLa, captured protein FUBP1)	fold changes relative to vehicle control ([1]; protein MDH2, HeLa)	fold changes relative to vehicle control [2, 9]	fold changes relative to vehicle control ([3]; captured protein WDR82, HeLa)	fold changes relative to vehicle control ([4]; HeLa, protein SLC7A5)	fold changes relative to vehicle control ([6]; captured protein ACAD10, HeLa)	fold changes relative to vehicle control ([8]; protein FUBP1, HeLa)	other results
Nc1nc2c(c(=O)[nH]1)N(C=O)C(CNc1ccc(C(=O)N[C@@H](CCC(=O)O)C(=O)O)cc1)CN2 (some centres unmarked) [LEU, leucovorin]	1.06	0.98	0.8	1.02	1	0.96	0.94	1.09							
Nc1nc2[nH]cc(CCc3ccc(C(=O)N[C@@H](CCC(=O)O)C(=O)O)cc3)c2c(=O)[nH]1 [PTX, pemetrexed]															fold changes relative to vehicle control [1]: 1.11; fold changes relative to vehicle control [2]: 1.08; fold changes relative to vehicle control [3]: 0.72; fold changes relative to vehicle control [4]: 0.8; fold changes relative to vehicle control [5]: 0.89; fold changes relative to vehicle control [6]: 0.71; fold changes relative to vehicle control [7]: 0.97; fold changes relative to vehicle control [8]: 1.17
CCCCCCOc1ccc(Cc2cnc(N)nc2N)cc1 [compound 1]					1.11		1.19		1.26	2.11 fold	0.75	0.97	0.84	1.24	
CCCCCCOc1cccc(Cc2cnc(N)nc2N)c1 [compound 2]					1.18		1.79		1.97	3.28 fold	1.01	1.01	0.84	1.48	
Nc1nc2cccc(-c3ccccc3)c2n1Cc1ccc(Cl)c(Cl)c1 [compound 3]					1.04		0.85		0.92	0.9 fold	0.9	1.06	0.94	1	
NCCOCCOCC(=O)Nc1nc2ncc(CNc3ccc(C(=O)NC(CCC(=O)O)C(=O)O)cc3)nc2c(=O)[nH]1 (centres unmarked) [compound 6]	1.34	1.16	0.89	0.76	0.96	0.76	1.15	1.28							
NCCCNc1ccc(C(=O)NC(CCC(=O)O)C(=O)O)cc1 (centres unmarked) [compound 7]	0.96	0.84	0.97	0.97	0.97	0.95	0.85	1							
